{"source": "patent US20200217852A1", "about": "“Quantitation of Free and Total N-Acetylcysteine Amide and Its Metabolite N-Acetylcysteine in Human Plasma Using Derivatization and Electrospray LC-MS/MS” (NACUITY PHARMACEUTICALS, INC., priority 2019, published 2020)", "key": {"[1]": {"experiment": "Stability of underivatized NAC and NACA thiol in plasma monitored directly by HILIC LC-MS/MS", "format": "in vitro ADME", "conditions": "human, room temperature, read-out: Half-lives for thiol disappearance", "protocol": "Half-lives for thiol disappearance were approximately 10 minutes at room temperature. Therefore, the inventors sought to stabilize NAC and NACA by derivatization. When plasma samples spiked with NAC and NACA were treated with TCEP and CMPI, the thiols were well recovered as the thioether derivatives.\n(§1) All stability testing in plasma (benchtop, freeze/thaw, and long-term storage) was performed using QC samples prepared in both CMPI-fortified plasma as well as unfortified plasma. In this manner, the stabilities of both the oxidized thiols (in disulfide forms) and the thioether derivatives were tested, since it was assumed that unknown samples would likely contain some of both species. The CMPI-thioethers were stable for at least 5 freeze/thaw cycles and for at least 20 hours at room temperature, as compared to less than 1 hour for the underivatized free thiols. The oxidized thiols were stable for at least 5 freeze/thaw cycles and for at least 22 hours, as evidenced by their full recovery as thioethers when assayed using the total method. Stability was also tested in extracts, whether held for first injection or reinjected. Extracts were stable for over 90 hours when refrigerated. Precision and accuracy was acceptable in lipemic and hemolyzed plasma."}, "[2]": {"format": "in vitro ADME", "conditions": "human", "protocol": "Calibration standards (CS) were prepared by mixing CMPI-fortified control matrix (95 parts) with the respective spiking solution (5 parts) to make 50.0, 40.0, 20.0, 5.00, 2.50, 0.500, 0.100, and 0.050 μg/mL NAC/NACA pools which were stable for at least 80 days when stored at −20° C. and for 284 days when stored at −80° C. It was critical that CS pools be spiked quickly after CMPI fortification of the plasma, with the lowest concentration pools being spiked first, within 5-10 minutes of mixing plasma with CMPI.\nValidation. The method was validated according to regulatory guidances. Three independently prepared analytical runs were executed to test the linearity of the calibration curve and the precision and accuracy of measuring validation samples (over 4 concentrations). Additional runs to evaluate recovery, matrix factor/suppression effects, reinjection reproducibility, and carryover were also performed. The selectivity of the method was evaluated over 10 lots of human plasma and the same lots were spiked at the mid QC level to verify inter-subject precision and accuracy. Freeze/thaw, benchtop, and autosampler stabilities were determined. Precision and accuracy data were also generated in lipemic and hemolyzed plasma lots, and stability in whole blood was tested. Long run lengths (up to 192 samples over 2 plates) were evaluated to determine whether the analytical system was reliable over twice the expected duty cycle.\nas §1"}}, "note": "Read-outs that look alike come from different tables or passages of the source."}
{"smiles": "CC(=O)N[C@@H](CS)C(=O)O", "note": "[NAC, N-acetyl-L-cysteine]", "values": [{"measurement": "half-life", "setting": "[1]", "result": "~10", "unit": "min"}, {"measurement": "Freeze/Thaw Stability", "setting": "[2]", "result": "At least 5 cycles, at either −20 °C or −80° C., either analyte"}, {"measurement": "Benchtop Stability", "setting": "[2]; 20 hours", "result": "At least 20 hours at room temperature, either analyte"}, {"measurement": "Stability of calibration standard pools", "setting": "[2]; 80 days", "result": "at least 80 days"}, {"measurement": "Stability of calibration standard pools", "setting": "[2]; 284 days", "result": 284, "unit": "days"}]}
